The subject of experiment [1] is normal C57BL/6 mice. As to the kind of experiment: Effects of DPP-IV inhibitors on the blood glucose of normal C57BL/6 mice (oral glucose tolerance). Type of experiment: in vivo. As to conditions: oral 5 mg/kg; for Nor-sugar rate % (5 mg/kg): male C57BL/6 mice, glucose 2.5 g/kg by gavage 30 min after administration. On the procedure: The effects of the test compounds on the oral glucose tolerance of normal C57BL/6 mice were observed, and the hypoglycemic activities of these compounds in vivo were evaluated preliminarily.
Preparation procedure: Drugs were accurately weighed, and 5 mg of compounds of examples 3, 9 15, 16 and 17 were dissolved respectively in 20 mL of normal saline to obtain 0.25 mg/mL solutions.
Administrated Dose: The oral dose was 5 mg/kg and the gavage dose was 0.02 mL/g.
Test Method: The normal male C57BL/6 mice were grouped randomly into a blank control group, a positive control group, and treatment groups having 7 mice each group.
Administration and Serum Glucose Determination: C57BL/6 mice of each group were fasted for 18 hours before the experiment. The blood was drawn from the caudal vein of the mice and the glucose level was measured by using a blood-glucose meter. After detection, 0.25 mg/mL of positive control, 0.25 mg/mL of examples 3, 9, 15, 16 and 17 and normal saline were respectively administered to the positive control group, treatment groups and blank control group by intragastric administration. The blood glucose level (0 min) of positive control group was measured in 60 min after administration. The blood glucose levels (0 min) of the other groups were measured in 30 min after administration, and then glucose (2.5 g/kg) was administered to the mice through gavage. The blood was drawn from the caudal vein of the mice in 15 min, 30 min, 45 min, 60 min, 120 min after administration. The blood glucose levels of C57BL/6 mice were measured continuously by blood-glucose meter.
1. Glucose concentration-time curve was plotted, and AUC from 0 to 120 min and hypoglycemic rate of each dosage group at blood glucose peak were calculated.
2. Experimental data were represented in x±SD. The data were analyzed by SPSS 16.0 software. The data were compared between multiple groups using nonparametric Kruskal-Wallis H test method.

In experiment [2] the target is T1, DPP-IV (Homo sapiens, UniProt P27487).
T1 construct: purchased R&D 1180-SE
As to the kind of experiment: Active inhibition DPP-IV assay (Gly-Pro-AMC substrate, fluorescence). As to conditions: Gly-Pro-AMC 10 μM, 25 mM Tris pH 8.0. Type of experiment: biochemical. On the procedure: (§1) The following methods were used for testing the inhibitive action of the compound disclosed herein against DPP-IV, DPP-8 and DPP-9 enzymatic activity. The inhibitive ability of the compound disclosed herein against enzymatic activity of DPP-IV, DPP-8 and DPP-9 was tested. The measurements of the inhibition ratio or the 50% inhibiting concentration IC50 of every compound were based on a fixed quantity of enzyme-substrate mixtures and different concentrations of the test compounds.
DPP-IV enzyme was purchased from R&D, Catalog No. 1180-SE.
(§2) The test compound was dissolved in an appropriate amount of DMSO to prepare 100 mM mother liquor, which was divided into EP tubes and preserved at −20° C. The mother liquor was diluted with an assay buffer to prepare solutions with required concentrations. Sample solutions with different concentrations (4 μL) and certain concentration of DPP-IV (DPP-8 or DPP-9) solution (4 μL) were added into 384-well plates in turn. Referred to the instruction manual, Gly-Pro-AMC was selected as a substrate and the concentration thereof was 10 μM. The 16 mM mother liquor was prepared from the substrate and preserved at −20° C. for use. The 16 mM mother liquor was diluted with an assay buffer to a solution of known concentration. The assay buffer of DPP-IV was 25 mM Tris, and its pH was 8.0. The assay buffers of DPP-8 and DPP-9 were 50 mM Tris, and their pH was 7.5. The substrate mother liquor was diluted with an assay buffer, and the mixture (4 μL) was added into 384-well plates to prepare final solution concentration. The whole process was carried out in an ice bath. After the addition of the components of the assay system was completed, the system was centrifuged. The supernatant was then transferred to an Infinite F200 multifunctional microplate reader, and 20 fluorescence values were recorded every 30 sec. And then Slope (V0) was calculated directly by the software of microplate reader, fetching the data in the linear range. The measured reaction rate and the corresponding inhibition concentration were analyzed. Percent inhibition is I(%)=(V0−Vi)/V0×100%. Vi represents the initial reaction rate at different inhibition concentrations. V0 represents the initial reaction rate without inhibitor. Vi/V0 represents the inhibition level of inhibitor. Relevant curve chart was made with inhibition concentration as a horizontal coordinate and the value of Vi/V0 as a vertical coordinate. The IC50 values were calculated by Graph Pad Prism statistical analysis software.

Experiment [3] has as its target T2, DPP-9 (Homo sapiens, UniProt Q86TI2).
T2 construct: purchased Bioscience 80090
Description: Active inhibition DPP-9 assay (Gly-Pro-AMC substrate, fluorescence). Format: biochemical. As to conditions: Gly-Pro-AMC 10 μM, 50 mM Tris pH 7.5. On the procedure:
as §1
DPP-9 enzyme was purchased from Bioscience, Catalog No. 80090.
as §2

Experiment [4] has as its target T3, DPP-8 (Homo sapiens, UniProt Q6V1X1).
T3 construct: purchased Biomol SE-827
As to the kind of experiment: Active inhibition DPP-8 assay (Gly-Pro-AMC substrate, fluorescence). Type of experiment: biochemical. As to conditions: Gly-Pro-AMC 10 μM, 50 mM Tris pH 7.5. On the procedure: as §1
DPP-8 enzyme was purchased from Biomol, Catalog No. SE-827.
as §2

In general, IC50 refers to the midpoint of a concentration-inhibition curve. A higher IC50 goes with weaker potency in that assay.

T3 sequence (Q6V1X1 whole entry): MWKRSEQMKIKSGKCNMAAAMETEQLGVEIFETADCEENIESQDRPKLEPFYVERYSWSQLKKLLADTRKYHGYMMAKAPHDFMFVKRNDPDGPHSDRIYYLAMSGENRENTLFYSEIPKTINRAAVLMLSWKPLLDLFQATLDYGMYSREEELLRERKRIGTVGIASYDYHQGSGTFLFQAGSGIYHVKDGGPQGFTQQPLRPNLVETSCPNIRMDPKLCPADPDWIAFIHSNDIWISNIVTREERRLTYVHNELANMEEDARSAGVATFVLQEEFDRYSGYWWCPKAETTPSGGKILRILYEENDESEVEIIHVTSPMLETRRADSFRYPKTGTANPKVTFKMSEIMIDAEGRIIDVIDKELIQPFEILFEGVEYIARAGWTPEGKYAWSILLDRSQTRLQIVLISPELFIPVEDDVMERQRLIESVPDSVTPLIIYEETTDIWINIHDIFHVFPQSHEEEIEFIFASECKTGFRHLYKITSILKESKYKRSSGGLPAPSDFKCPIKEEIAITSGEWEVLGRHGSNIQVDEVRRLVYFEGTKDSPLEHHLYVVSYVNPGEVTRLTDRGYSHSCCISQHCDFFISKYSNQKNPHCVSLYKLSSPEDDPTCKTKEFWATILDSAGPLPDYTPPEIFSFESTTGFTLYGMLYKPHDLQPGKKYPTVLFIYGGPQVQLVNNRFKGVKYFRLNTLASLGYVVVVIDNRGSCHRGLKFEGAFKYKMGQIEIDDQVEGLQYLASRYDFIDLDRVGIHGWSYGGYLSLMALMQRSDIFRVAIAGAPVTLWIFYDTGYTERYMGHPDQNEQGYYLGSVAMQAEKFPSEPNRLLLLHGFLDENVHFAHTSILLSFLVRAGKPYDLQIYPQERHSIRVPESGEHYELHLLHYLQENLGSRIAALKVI
T1 sequence (P27487 whole entry): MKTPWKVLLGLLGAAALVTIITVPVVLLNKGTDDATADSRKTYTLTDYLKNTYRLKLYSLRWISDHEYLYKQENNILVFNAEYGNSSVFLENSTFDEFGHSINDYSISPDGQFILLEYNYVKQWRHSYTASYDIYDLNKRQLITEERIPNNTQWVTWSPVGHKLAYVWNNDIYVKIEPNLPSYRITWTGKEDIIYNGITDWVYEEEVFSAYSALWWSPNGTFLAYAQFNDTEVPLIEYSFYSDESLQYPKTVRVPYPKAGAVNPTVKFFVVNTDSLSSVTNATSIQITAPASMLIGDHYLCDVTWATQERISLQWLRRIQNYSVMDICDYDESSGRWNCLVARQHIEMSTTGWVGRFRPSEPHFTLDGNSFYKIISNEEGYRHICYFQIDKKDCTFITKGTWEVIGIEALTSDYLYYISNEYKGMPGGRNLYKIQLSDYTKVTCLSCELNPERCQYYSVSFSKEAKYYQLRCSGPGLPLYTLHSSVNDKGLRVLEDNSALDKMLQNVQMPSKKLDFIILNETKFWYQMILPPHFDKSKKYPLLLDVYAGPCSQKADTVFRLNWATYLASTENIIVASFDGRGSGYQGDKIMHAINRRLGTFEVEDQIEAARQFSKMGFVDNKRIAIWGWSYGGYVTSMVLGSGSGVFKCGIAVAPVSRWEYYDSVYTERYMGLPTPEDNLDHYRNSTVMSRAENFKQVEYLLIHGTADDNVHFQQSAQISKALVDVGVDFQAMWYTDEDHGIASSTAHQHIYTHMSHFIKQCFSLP
T2 sequence (Q86TI2 whole entry): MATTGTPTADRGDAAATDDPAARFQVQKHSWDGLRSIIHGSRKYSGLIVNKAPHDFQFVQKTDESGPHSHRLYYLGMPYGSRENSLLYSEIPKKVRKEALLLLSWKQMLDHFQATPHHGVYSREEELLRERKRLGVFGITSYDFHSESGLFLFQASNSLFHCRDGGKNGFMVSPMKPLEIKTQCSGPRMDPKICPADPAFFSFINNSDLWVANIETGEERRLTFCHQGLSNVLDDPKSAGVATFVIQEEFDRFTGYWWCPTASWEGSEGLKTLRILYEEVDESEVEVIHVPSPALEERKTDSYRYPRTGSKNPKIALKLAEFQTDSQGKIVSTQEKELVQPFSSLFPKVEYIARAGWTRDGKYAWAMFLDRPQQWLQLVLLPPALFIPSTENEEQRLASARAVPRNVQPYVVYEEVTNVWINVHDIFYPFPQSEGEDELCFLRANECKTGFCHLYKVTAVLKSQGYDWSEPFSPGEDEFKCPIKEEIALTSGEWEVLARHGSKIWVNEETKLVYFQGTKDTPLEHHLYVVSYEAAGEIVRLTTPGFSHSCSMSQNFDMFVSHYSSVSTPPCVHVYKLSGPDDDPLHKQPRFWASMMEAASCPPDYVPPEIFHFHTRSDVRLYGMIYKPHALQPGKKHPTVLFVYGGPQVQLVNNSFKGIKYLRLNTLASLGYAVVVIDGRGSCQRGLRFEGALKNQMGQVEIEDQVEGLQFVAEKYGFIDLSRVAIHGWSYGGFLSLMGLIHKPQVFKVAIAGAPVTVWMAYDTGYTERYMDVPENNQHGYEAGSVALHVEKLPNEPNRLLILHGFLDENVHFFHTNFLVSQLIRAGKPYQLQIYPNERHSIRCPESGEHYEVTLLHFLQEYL

Consider `C[C@@]1(NCC(=O)N2C[C@@H](F)C[C@H]2C#N)C[C@H]2C[C@@H](O)C[C@H]2C1` [Example 3, (2S,4S)-4-fluoro-1-(2-(((2r,3aR,5S,6aS)-5-hydroxy-2-methyloctahydropentalen-2-yl)amino)acetyl)pyrrolidine-2-carbonitrile], for which, in experiment [1], the “Nor-sugar rate % (5 mg/kg)” value is recorded as 35.96%. The 50% inhibitory concentration (IC50) in experiment [2] turned out to be 0.00249 µM; in experiment [3] it was 0.093 µM; in experiment [4] it was 3.92 µM.

Turning to `CO[C@H]1C[C@@H]2C[C@@](C)(NCC(=O)N3CCC[C@H]3C#N)C[C@@H]2C1` [Example 10, (S)-1-(2-(((2r,3aR,5R,6aS)-5-methoxy-2-methyloctahydropentalen-2-yl)amino)acetyl)pyrrolidine-2-carbonitrile], the IC50 in experiment [2] was 0.00243 µM; in experiment [3], 0.062 µM; in experiment [4] it was 5.98 µM.

`C[C@@]1(NCC(=O)N2CCC[C@H]2C#N)C[C@H]2CC(C#N)C[C@H]2C1` (stereo partly drawn) [Example 16, (2S)-1-(2-(((2s,3aR,6aS)-5-cyano-2-methyloctahydropentalen-2-yl)amino)acetyl)pyrrolidine-2-carbonitrile]: in experiment [1], the “Nor-sugar rate % (5 mg/kg)” value was found to be 24.69%. For the same compound, the “hypoglycemic activities for C57BL/6 mice” value in experiment [1] (conclusion in words) is “good hypoglycemic activities”. Moreover, the 50% inhibitory concentration (IC50) in experiment [2] amounted to 0.00137 µM; in experiment [3], 0.34 µM; in experiment [4] it was 12.8 µM.

The compound `C[C@@]1(NCC(=O)N2C[C@@H](F)C[C@H]2C#N)C[C@H]2C[C@@H](OC3CC3)C[C@H]2C1` [Example 13, (2S,4S)-1-(2-(((2r,3aR,5S,6aS)-5-cyclopropoxy-2-methyloctahydropentalen-2-yl)amino)acetyl)-4-fluoropyrrolidine-2-carbonitrile] displayed an IC50 in experiment [2] of 0.00925 µM.

Consider `CCO[C@@H]1C[C@@H]2C[C@@](C)(NCC(=O)N3C[C@@H](F)C[C@H]3C#N)C[C@@H]2C1` [Example 7, (2S,4S)-1-(2-(((2r,3aR,5S,6aS)-5-ethoxy-2-methyloctahydropentalen-2-yl)amino)acetyl)-4-fluoropyrrolidine-2-carbonitrile], for which the values for the IC50 in experiment [2], in experiment [3] and in experiment [4] were 0.00429 µM, 0.027 µM and 2.67 µM, respectively.

Take `CC(=O)O[C@@H]1C[C@@H]2C[C@@](C)(NCC(=O)N3CCC[C@H]3C#N)C[C@@H]2C1` [Example 18, (2S,3aR,5r,6aS)-5-((2-((S)-2-cyanopyrrolidin-1-yl)-2-oxoethyl)amino)-5-methyloctahydropentalen-2-yl acetate]: the 50% inhibitory concentration (IC50) in experiment [2] worked out at 0.00253 µM; in experiment [3] it was 0.242 µM; in experiment [4] it was 20.1 µM.

Consider `CO[C@@H]1C[C@@H]2CC(NCC(=O)N3C[C@@H](F)C[C@H]3C#N)C3(CC3)[C@@H]2C1` (stereo partly drawn) [Example 11, (2S,4S)-4-fluoro-1-(2-(((3a′S,5′R,6a′R)-5′-methoxyhexahydro-2′H-spiro[cyclopropane-1,1′-pentalen]-2′-yl)amino)acetyl)pyrrolidine-2-carbonitrile], for which the values for the IC50 in experiment [2], in experiment [3] and in experiment [4] were 0.105 µM, 0.916 µM and 14.2 µM, respectively.

In the case of `C[C@@]1(NCC(=O)N2C[C@@H](F)C[C@H]2C#N)C[C@H]2C[C@@H](OCC3CC3)C[C@H]2C1` [Example 8, (2S,4S)-1-(2-(((2r,3aR,5S,6aS)-5-(cyclopropylmethoxy)-2-methyloctahydropentalen-2-yl)amino)acetyl)-4-fluoropyrrolidine-2-carbonitrile], the IC50 in experiment [2] is 0.00691 µM; in experiment [3], 0.031 µM; in experiment [4] it was 3.8 µM.

As for `C[C@@]1(NCC(=O)N2CCC[C@H]2C#N)C[C@H]2C[C@@H](O)C[C@H]2C1` [Example 5, (S)-1-(2-(((2r,3aR,5S,6aS)-5-hydroxy-2-methyloctahydropentalen-2-yl)amino)acetyl)pyrrolidine-2-carbonitrile], the IC50 turned out to be 0.0274 µM in experiment [2] and 4.33 µM in experiment [3].

On to `CCO[C@@H]1C[C@@H]2C[C@@](C)(NCC(=O)N3CCC[C@H]3C#N)C[C@@H]2C1` [Example 6, (S)-1-(2-(((2r,3aR,5S,6aS)-5-ethoxy-2-methyloctahydropentalen-2-yl)amino)acetyl)pyrrolidine-2-carbonitrile], for which the IC50 in experiment [2] was 0.00452 µM; in experiment [3], 0.193 µM; in experiment [4] it was 18.2 µM.

For the compound `C#CC1C[C@@H]2C[C@@](C)(NCC(=O)N3C[C@@H](F)C[C@H]3C#N)C[C@@H]2C1` (stereo partly drawn) [Example 20, (2S,4S)-1-(2-(((2s,3aR,6aS)-5-ethynyl-2-methyloctahydropentalen-2-yl)amino)acetyl)-4-fluoropyrrolidine-2-carbonitrile], the 50% inhibitory concentration (IC50) in experiment [2] turned out to be 0.00418 µM; in experiment [3], 0.091 µM; in experiment [4], 2.07 µM.

Regarding `C[C@@]1(NCC(=O)N2CCC[C@H]2C#N)C[C@H]2C[C@@H](OC3CC3)C[C@H]2C1` [Example 14, (S)-1-(2-(((2r,3aR,5S,6aS)-5-cyclopropoxy-2-methyloctahydropentalen-2-yl)amino)acetyl)pyrrolidine-2-carbonitrile], the IC50 in experiment [2] stood at 0.00923 µM.

Regarding `CO[C@H]1C[C@@H]2C[C@@](C)(NCC(=O)N3C[C@@H](F)C[C@H]3C#N)C[C@@H]2C1` [Example 4, (2S,4S)-4-fluoro-1-(2-(((2r,3aR,5R,6aS)-5-methoxy-2-methyloctahydropentalen-2-yl)amino)acetyl)pyrrolidine-2-carbonitrile], the values for the half-maximal inhibitory concentration (IC50) in experiment [2], in experiment [3] and in experiment [4] were 0.0025 µM, 0.0124 µM and 0.9 µM, respectively.

The compound `C[C@@]1(NCC(=O)N2C3C[C@H]3C[C@H]2C#N)C[C@H]2C[C@@H](O)C[C@H]2C1` (stereo partly drawn) [Example 12, (1S,3S,5S)-2-(2-(((2r,3aR,5S,6aS)-5-hydroxy-2-methyloctahydropentalen-2-yl)amino)acetyl)-2-azabicyclo[3.1.0]hexane-3-carbonitrile] showed an IC50 in experiment [2] of 0.171 µM.

Take `C[C@@]1(NCC(=O)N2C[C@@H](F)C[C@H]2C#N)C[C@H]2CC3(CCO3)C[C@H]2C1` (stereo partly drawn) [Example 19, (2S,4S)-4-fluoro-1-(2-(((3a′R,5′r,6a′S)-5′-methylhexahydro-1′H-spiro[oxetane-2,2′-pentalen]-5′-yl)amino)acetyl)pyrrolidine-2-carbonitrile]: the IC50 in experiment [2] is 0.0258 µM.

As for `CO[C@@H]1C[C@@H]2C[C@@](C)(NCC(=O)N3CCC[C@H]3C#N)C[C@@H]2C1` [Example 1, (S)-1-(2-(((2r,3aR,5S,6aS)-5-methoxy-2-methyloctahydropentalen-2-yl)amino)acetyl)pyrrolidine-2-carbonitrile], the IC50 in experiment [2] came out at 0.0113 µM; in experiment [3], 4.6 µM; in experiment [4], 50.5 µM.

Turning to `CO[C@@H]1C[C@@H]2C[C@@](C)(NCC(=O)N3C[C@@H](F)C[C@H]3C#N)C[C@@H]2C1` [Example 2, (2S,4S)-4-fluoro-1-(2-(((2r,3aR,5S,6aS)-5-methoxy-2-methyloctahydropentalen-2-yl)amino)acetyl)pyrrolidine-2-carbonitrile], the IC50 in experiment [2] came out at 0.00403 µM; in experiment [3] it was 0.054 µM; in experiment [4] it was 1.58 µM.

Source of the values: patent publication US9567300B2, “Hexahydropentaleno derivatives, preparation method and use in medicine thereof” (SUNSHINE LAKE PHARMA CO., LTD., priority 2012, dated 2017).
